Assay results taken from ChEMBL document CHEMBL4732166, “Thiosemicarbazide binds with the dicopper center in the competitive inhibition of mushroom tyrosinase enzyme: Synthesis and molecular modeling of theophylline analogues” (Bioorg Med Chem Lett, 2021).

Molecular target: Mushroom tyrosinase (Agaricus bisporus) (UniProt O42713+Q00024+C7FF04+C7FF05)
Conditions: dose 50.0 µM
Description: Inhibition of mushroom tyrosinase using PNP-G as substrate at 50 nM relative to control

inhibition	Structure (SMILES)
40.3%	CCn1c(Oc2ccc(/C=N\NC(=O)c3cccnc3)cc2)nc2c1c(=O)n(C)c(=O)n2C
> 40%	CCn1c(Oc2ccc(/C=N\Nc3c(F)c(F)c(F)c(F)c3F)cc2)nc2c1c(=O)n(C)c(=O)n2C
> 40%	CCn1c(NN)nc2c1c(=O)n(C)c(=O)n2C
27%	CCn1c(N/N=C/c2nc3ccccc3[nH]2)nc2c1c(=O)n(C)c(=O)n2C
> 40%	CCn1c(Oc2ccc(/C=N/NC(N)=S)cc2)nc2c1c(=O)n(C)c(=O)n2C
> 40%	CCn1c(Oc2ccc(/C=N/N=C3/C(=O)Nc4ccccc43)cc2)nc2c1c(=O)n(C)c(=O)n2C
> 40%	CCn1c(Oc2ccc(C=C(C#N)C#N)cc2)nc2c1c(=O)n(C)c(=O)n2C
30.2%	CCn1c(Oc2ccc(C=C3C(=O)NC(=S)NC3=O)cc2)nc2c1c(=O)n(C)c(=O)n2C
> 40%	CCn1c(Oc2ccc(/C=N/Nc3ccccn3)cc2)nc2c1c(=O)n(C)c(=O)n2C
29.5%	CCn1c(Oc2ccc(C=O)cc2)nc2c1c(=O)n(C)c(=O)n2C
29.4%	CCn1c(Oc2ccc(/C=N/N=C3/NC(=O)CS3)cc2)nc2c1c(=O)n(C)c(=O)n2C
33.6%	CCn1c(Oc2ccc(-c3nnc(NC(C)=O)s3)cc2)nc2c1c(=O)n(C)c(=O)n2C
> 40%	CCn1c(Oc2ccc(/C=N/N)cc2)nc2c1c(=O)n(C)c(=O)n2C
> 40%	CCn1c(Oc2ccc(-c3nc(-c4ccccc4)c(-c4ccccc4)[nH]3)cc2)nc2c1c(=O)n(C)c(=O)n2C
32.7%	CCn1c(Oc2ccc(C3C(C#N)=C(N)Oc4[nH]c(=S)[nH]c(=O)c43)cc2)nc2c1c(=O)n(C)c(=O)n2C (stereo not drawn)
> 40%	CCn1c(Oc2ccc(C3C4=C(CC(C)(C)CC4=O)NC4=C3C(=O)CC(C)(C)C4)cc2)nc2c1c(=O)n(C)c(=O)n2C

Molecular target: T1, Mushroom tyrosinase (Agaricus bisporus, UniProt O42713+Q00024+C7FF04+C7FF05)
Assay: Competitive inhibition of mushroom tyrosinase using […] as substrate by Lineweaver-Burk plot analysis
Conditions: not given

Ki	Structure (SMILES)
670 nM	CCn1c(Oc2ccc(/C=N/NC(N)=S)cc2)nc2c1c(=O)n(C)c(=O)n2C

Molecular target: T1, Mushroom tyrosinase
Assay: Inhibition of mushroom tyrosinase using […] as substrate
Conditions: not given

Ki	Structure (SMILES)
670 nM	CCn1c(Oc2ccc(/C=N/NC(N)=S)cc2)nc2c1c(=O)n(C)c(=O)n2C
